The target of the assay is T1, human PD-1 / PD-L1-Ig binding on Jurkat cell line over-expressing human PD-1 (Jurkat-PD-1) (Homo sapiens, UniProt Q15116).
T1 construct: expressed in transfected cells; host or cells: Jurkat
In words: Jurkat-PD-1 Cell Binding High-Content Screening Assay (CBA). The assay is classed as cell-based. The settings on record: Jurkat-PD-1 cells, PE-labeled PD-L1-Ig 20 nM final; read-out: Jurkat HPD1_PDL1 IC50. Summed up:
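Jurkat cells over-expressing human PD-1, in DMEM/10% FCS, pre-incubated with compound 2 h at 37° C. PE-labeled human PD-L1-Ig (20 nM final) added for 1 h; cells fixed in paraformaldehyde with Hoechst 33342 nuclear stain, washed, and bound fluorescence quantified by high-content imaging.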

*1 amine or outer side, *2 acyl side, *3 side chain or, on linkers, in order; H or OH if unused. Where a SMILES comes first, the peptide text is derived from it. Bridges are numbered along the chain shown (N, C = ends). [ ]: non-standard residue; d: D form. The star is where a group is joined. ξ: configuration not given here. Ala(6-(2-MePh)pyridin-3-yl) = Cc1ccccc1-c1ccc(C[C@H](N)C(=O)O)cn1; Phe(3-CF3) = N[C@@H](Cc1cccc(C(F)(F)F)c1)C(=O)O; Ala(morpholin-4-yl) = N[C@@H](CN1CCOCC1)C(=O)O; Phe(4-COOH) = N[C@@H](Cc1ccc(C(=O)O)cc1)C(=O)O; X5 = O=C([C@H](Cc1ccc2ncccc2c1)N[*:1])[*:2]; Bip = N[C@@H](Cc1ccc(-c2ccccc2)cc1)C(=O)O; Phe(3-Me) = Cc1cccc(C[C@H](N)C(=O)O)c1; Benzoyl(4-F) = O=C(c1ccc(F)cc1)*; aIle = CC[C@@H](C)[C@H](N)C(=O)O; 4Pal = N[C@@H](Cc1ccncc1)C(=O)O; Cha = N[C@@H](CC1CCCCC1)C(=O)O; Cit = NC(=O)NCCC[C@H](N)C(=O)O; dCha = N[C@H](CC1CCCCC1)C(=O)O; Carboxymethyl = O=C(O)C*; Orn = NCCC[C@H](N)C(=O)O; Dab = NCC[C@H](N)C(=O)O; Dap = NC[C@H](N)C(=O)O; ξPra = C#CCC(N)C(=O)O; Piv = CC(C)(C)C(=O)*

Our source for the IC50 values is US20250163104A1, “MACROCYCLIC IMMUNOMODULATORS” (priority 2021, published 2025).

T1 sequence (Q15116 25-288): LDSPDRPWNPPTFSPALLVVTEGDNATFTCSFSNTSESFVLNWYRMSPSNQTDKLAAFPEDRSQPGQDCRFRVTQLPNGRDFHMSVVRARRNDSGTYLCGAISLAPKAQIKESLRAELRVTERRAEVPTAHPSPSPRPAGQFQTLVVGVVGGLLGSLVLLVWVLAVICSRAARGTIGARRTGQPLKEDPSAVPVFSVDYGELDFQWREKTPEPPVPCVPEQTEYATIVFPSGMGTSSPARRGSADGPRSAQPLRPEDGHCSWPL

A word on the IC50: it is the point on the concentration scale where inhibition reaches its midpoint. For the compound `C#CCC(NC(=O)[C@H](CCCN)NC(=O)[C@@H]1CSCC(=O)N[C@@H](Cc2ccncc2)C(=O)N[C@@H](Cc2ccc(OCC(=O)O)cc2)C(=O)N[C@@H](CC(=O)O)C(=O)N[C@@H](Cc2c[nH]c3ccccc23)C(=O)N[C@@H](C(C)C)C(=O)N[C@@H](Cc2ccc(-c3ccccc3)cc2)C(=O)N[C@@H]([C@@H](C)CC)C(=O)N[C@@H](CCCN)C(=O)N[C@H](CC(C)C)C(=O)N[C@@H](CCN)C(=O)N[C@@H](CC(C)C)C(=O)N[C@@H](C(C)C)C(=O)N[C@@H]([C@@H](C)O)C(=O)N1)C(N)=O` (stereo partly drawn) [Compound 1760] ({CH2CO}-[4Pal]Y(Carboxymethyl)DWV[Bip]I[Orn][dL][Dab]LVTC[Orn][ξPra]-NH2; thioether N-14), the IC50 is 39.6 nM.

As for `CC[C@H](C)[C@@H]1NC(=O)[C@H](CCN)NC(=O)[C@@H](CC(C)C)NC(=O)[C@H](CCCN)NC(=O)[C@H](CCCNC(N)=O)NC(=O)[C@H](Cc2ccc(-c3ccccc3)cc2)NC(=O)[C@H](C(C)C)NC(=O)[C@H](Cc2c[nH]c3ccccc23)NC(=O)[C@H](CC(=O)O)NC(=O)[C@H](Cc2ccc(OCC(=O)O)cc2)NC(=O)[C@H](CN)NC(=O)CSC[C@@H](C(=O)N[C@@H](C)C(N)=O)NC(=O)[C@H]([C@@H](C)O)NC(=O)[C@H](C(C)C)NC1=O` [Compound 1317] ({CH2CO}-[Dap]Y(Carboxymethyl)DWV[Bip][Cit][Orn][dL][Dab]IVTCA-NH2; thioether N-14), the IC50 worked out at 912 nM.

As to `Cc1cccc(C[C@@H]2NC(=O)[C@H](CC(=O)O)NC(=O)[C@H](Cc3ccc(OCC(=O)O)cc3)NC(=O)[C@H](CN)NC(=O)CSC[C@@H](C(=O)N[C@@H](C)C(N)=O)NC(=O)[C@H]([C@@H](C)O)NC(=O)[C@H](C(C)C)NC(=O)[C@H](CC3CCCCC3)NC(=O)[C@H](CCN)NC(=O)[C@@H](CC(C)C)NC(=O)[C@H](CCCN)NC(=O)[C@H](C(C)C)NC(=O)[C@H](Cc3ccc(-c4ccccc4)cc3)NC(=O)[C@H](CC(C)C)NC2=O)c1` [Compound 1303] ({CH2CO}-[Dap]Y(Carboxymethyl)D[Phe(3-Me)]L[Bip]V[Orn][dL][Dab][Cha]VTCA-NH2; thioether N-14), the IC50 came to 4.8 nM.

On to `CC(C)C[C@@H]1NC(=O)[C@H](CCN)NC(=O)[C@@H](CC(C)C)NC(=O)[C@H](CCCN)NC(=O)[C@H](CCCNC(N)=O)NC(=O)[C@H](Cc2ccc(-c3ccccc3)cc2)NC(=O)[C@H](C(C)C)NC(=O)[C@H](Cc2c[nH]c3ccccc23)NC(=O)[C@H](CC(=O)O)NC(=O)[C@H](Cc2ccc(OCC(=O)O)cc2)NC(=O)[C@H](Cc2ccncc2)NC(=O)CSC[C@@H](C(=O)N[C@@H](C)C(N)=O)NC(=O)[C@H]([C@@H](C)O)NC(=O)[C@H](C(C)C)NC1=O` [Compound 1042] ({CH2CO}-[4Pal]Y(Carboxymethyl)DWV[Bip][Cit][Orn][dL][Dab]LVTCA-NH2; thioether N-14), for which the IC50 worked out at 13 nM.

Take `CC(C)C[C@H]1NC(=O)[C@H](CCCN)NC(=O)[C@H](CCCNC(N)=O)NC(=O)[C@H](Cc2ccc(-c3ccccc3)cc2)NC(=O)[C@H](C(C)C)NC(=O)[C@H](Cc2c[nH]c3ccccc23)NC(=O)[C@H](CC(=O)O)NC(=O)[C@H](Cc2ccc(OCC(=O)O)cc2)NC(=O)[C@H](Cc2ccc(OCC(=O)O)cc2)NC(=O)CSC[C@@H](C(=O)N[C@@H](C)C(N)=O)NC(=O)[C@H]([C@@H](C)O)NC(=O)[C@H](C(C)C)NC(=O)[C@H](Cc2ccc(O)cc2)NC(=O)[C@H](CCN)NC1=O` [Compound 1685] ({CH2CO}-Y(Carboxymethyl)Y(Carboxymethyl)DWV[Bip][Cit][Orn][dL][Dab]YVTCA-NH2; thioether N-14): the IC50 was determined as 175 nM.

For the compound `Cc1cccc(C[C@@H]2NC(=O)[C@H](CC(=O)O)NC(=O)[C@H](Cc3ccc(OCC(=O)O)cc3)NC(=O)[C@H](CN)NC(=O)CSC[C@@H](C(=O)N[C@@H](CCN)C(N)=O)NC(=O)[C@H](CCCN)NC(=O)[C@H](C(C)C)NC(=O)[C@H](CC3CCCCC3)NC(=O)[C@H](CCNC(=O)C(C)(C)C)NC(=O)[C@@H](CC(C)C)NC(=O)[C@H](CCCN)NC(=O)[C@H](Cc3ccc(O)cc3)NC(=O)[C@H](Cc3ccc(-c4ccccc4)cc3)NC(=O)[C@H](Cc3ccc(O)cc3)NC2=O)c1` [Compound 2036] ({CH2CO}-[Dap]Y(Carboxymethyl)D[Phe(3-Me)]Y[Bip]Y[Orn][dL][Dab](Piv)[Cha]V[Orn]C[Dab]-NH2; thioether N-14), the IC50 was determined as 10 nM.

Consider `Cc1ccccc1-c1ccc(C[C@@H]2NC(=O)[C@H](Cc3cccc(C(F)(F)F)c3)NC(=O)[C@H](CC(=O)O)NC(=O)[C@H](Cc3ccc(C(=O)O)cc3)NC(=O)[C@H](CN3CCOCC3)NC(=O)CSC[C@@H](C(=O)N[C@@H](CCN)C(N)=O)NC(=O)[C@H](CCC(=O)O)NC(=O)[C@H](C(C)C)NC(=O)[C@H](CC3CCCCC3)NC(=O)[C@H](CCN)NC(=O)[C@@H](CC(C)C)NC(=O)[C@H](CCCN)NC(=O)[C@H](Cc3ccc(C(=O)O)cc3)NC(=O)[C@H](Cc3ccc(-c4ccccc4)cc3)NC2=O)cn1` [Example 2732] ({CH2CO}-[Ala(morpholin-4-yl)][Phe(4-COOH)]D[Phe(3-CF3)][Ala(6-(2-MePh)pyridin-3-yl)][Bip][Phe(4-COOH)][Orn][dL][Dab][Cha]VEC[Dab]-NH2; thioether N-14), for which the IC50 is 1.7 nM.

Turning to `CC(C)C[C@H]1NC(=O)[C@H](CCCN)NC(=O)[C@H](CCC(=O)O)NC(=O)[C@H](Cc2ccc(-c3ccccc3)cc2)NC(=O)[C@H](C(C)C)NC(=O)[C@H](Cc2ccc3ncccc3c2)NC(=O)[C@H](CC(=O)O)NC(=O)[C@H](Cc2ccc(OCC(=O)O)cc2)NC(=O)[C@H](CN)NC(=O)CSC[C@@H](C(=O)N[C@@H](C)C(N)=O)NC(=O)[C@H]([C@@H](C)O)NC(=O)[C@H](C(C)C)NC(=O)[C@H](CC2CCCCC2)NC(=O)[C@H](CCN)NC1=O` [Compound 2145] ({CH2CO}-[Dap]Y(Carboxymethyl)D[X5]V[Bip]E[Orn][dL][Dab][Cha]VTCA-NH2; thioether N-14), the IC50 was 469 nM.

For the compound `Cc1cccc(C[C@@H]2NC(=O)[C@H](CC(=O)O)NC(=O)[C@H](Cc3ccc(OCC(=O)O)cc3)NC(=O)[C@H](CNC(=O)c3ccc(F)cc3)NC(=O)CSC[C@@H](C(N)=O)NC(=O)[C@H]([C@@H](C)O)NC(=O)[C@H](C(C)C)NC(=O)[C@H](CC3CCCCC3)NC(=O)[C@H](CCN)NC(=O)[C@@H](CC(C)C)NC(=O)[C@H](CCCN)NC(=O)[C@H](Cc3ccc(OCC(=O)O)cc3)NC(=O)[C@H](Cc3ccc(-c4ccccc4)cc3)NC(=O)[C@H](Cc3ccc(O)cc3)NC2=O)c1` [Compound 2048] ({CH2CO}-[Dap](Benzoyl(4-F))Y(Carboxymethyl)D[Phe(3-Me)]Y[Bip]Y(Carboxymethyl)[Orn][dL][Dab][Cha]VTC-NH2; thioether N-14), the IC50 was 40.2 nM.

For the compound `CC(C)C[C@H]1NC(=O)[C@H](CCCN)NC(=O)[C@H](CCC(=O)O)NC(=O)[C@H](Cc2ccc(-c3ccccc3)cc2)NC(=O)[C@H](C(C)C)NC(=O)[C@H](Cc2c[nH]c3ccccc23)NC(=O)[C@H](CC(=O)O)NC(=O)[C@H](Cc2ccc(C(=O)O)cc2)NC(=O)[C@H](Cc2ccc(OCC(=O)O)cc2)NC(=O)CSC[C@@H](C(=O)N[C@@H](C)C(N)=O)NC(=O)[C@H]([C@@H](C)O)NC(=O)[C@H](C(C)C)NC(=O)[C@H](Cc2ccccc2)NC(=O)[C@H](CCN)NC1=O` [Compound 1667] ({CH2CO}-Y(Carboxymethyl)[Phe(4-COOH)]DWV[Bip]E[Orn][dL][Dab]FVTCA-NH2; thioether N-14), the IC50 amounted to 30 nM.

As for `CC(C)[C@@H]1NC(=O)[C@H](Cc2c[nH]c3ccccc23)NC(=O)[C@H](CC(=O)O)NC(=O)[C@H](Cc2ccc(OCC(=O)O)cc2)NC(=O)[C@H](Cc2ccncc2)NC(=O)CSC[C@@H](C(=O)N[C@@H](C)C(N)=O)NC(=O)[C@H]([C@@H](C)O)NC(=O)[C@H](C(C)C)NC(=O)[C@H](CC2CCCCC2)NC(=O)[C@H](CCN)NC(=O)[C@@H](CC2CCCCC2)NC(=O)[C@H](CCCN)NC(=O)[C@H](C(C)C)NC(=O)[C@H](Cc2ccc(-c3ccccc3)cc2)NC1=O` [Compound 1636] ({CH2CO}-[4Pal]Y(Carboxymethyl)DWV[Bip]V[Orn][dCha][Dab][Cha]VTCA-NH2; thioether N-14), the IC50 was found to be 19.7 nM.

Turning to `CC[C@@H](C)[C@@H]1NC(=O)[C@H](Cc2ccc(-c3ccccc3)cc2)NC(=O)[C@H](C(C)C)NC(=O)[C@H](Cc2c[nH]c3ccccc23)NC(=O)[C@H](CC(=O)O)NC(=O)[C@H](Cc2ccc(OCC(=O)O)cc2)NC(=O)[C@H](CN)NC(=O)CSC[C@@H](C(=O)N[C@@H](C)C(N)=O)NC(=O)[C@H]([C@@H](C)O)NC(=O)[C@H](C(C)C)NC(=O)[C@H](CC2CCCCC2)NC(=O)[C@H](CCN)NC(=O)[C@@H](CC2CCCCC2)NC(=O)[C@H](CCCN)NC1=O` [Compound 1627] ({CH2CO}-[Dap]Y(Carboxymethyl)DWV[Bip][aIle][Orn][dCha][Dab][Cha]VTCA-NH2; thioether N-14), the IC50 was 19.3 nM.

As to `CC(C)C[C@H]1NC(=O)[C@H](CCCN)NC(=O)[C@H](CCC(=O)O)NC(=O)[C@H](Cc2ccc(-c3ccccc3)cc2)NC(=O)[C@H](C(C)C)NC(=O)[C@H](Cc2cccc(C(F)(F)F)c2)NC(=O)[C@H](CC(=O)O)NC(=O)[C@H](Cc2ccncc2)NC(=O)[C@H](Cc2ccc(OCC(=O)O)cc2)NC(=O)CSC[C@@H](C(=O)N[C@@H](C)C(N)=O)NC(=O)[C@H]([C@@H](C)O)NC(=O)[C@H](C(C)C)NC(=O)[C@H](CC2CCCCC2)NC(=O)[C@H](CCN)NC1=O` [Compound 1462] ({CH2CO}-Y(Carboxymethyl)[4Pal]D[Phe(3-CF3)]V[Bip]E[Orn][dL][Dab][Cha]VTCA-NH2; thioether N-14), the IC50 amounted to 16.8 nM.
